Reference: US20090186854A1, “S-ALKYLISOTHIOURONIUM DERIVATIVES FOR THE TREATMENT OF INFLAMMATORY DISEASES” (Meditor Pharmaceuticals Ltd., priority 2006, published 2009)

How the values were obtained:
[1] = system: healthy male subjects; assay: Phase I clinical trial, safety of escalating doses; assay type: in vivo, human; conditions: 12 healthy male subjects
Procedure: Based on animal toxicological studies and on the accumulated data on human patients, S-ethylisothiouronium diethylphosphate was approved for a Phase I clinical trial. In this study, the pharmacokinetic profile as well as safety of escalating doses (0.6-2.4 mg/kg) of S-ethylisothiouronium diethylphosphate were assessed in 12 healthy male subjects.

[2] = system: rats; assay: Animal toxicological studies (single or repeated dose, LD50)

## S-ethylisothiouronium diethylphosphate
[1]; doses up to 1.2 mg/kg
  Adverse events: no recorded adverse events
[1]; escalating doses 0.6-2.4 mg/kg
  Well tolerated dose: up to 1.2 mg/kg
[2]; in rats
  LD50: up to 400 mg/kg
[2]; rats LD50 vs therapeutically recommended dose of 0.6-1.2 mg/kg
  LD50 relative to therapeutically recommended dose: 300-400 fold
